Laboratory results reported in ChEMBL document CHEMBL1128803 (Bioorg Med Chem Lett, 1995).

Assays:
Assay type in all cases: protein assay
Phosphodiesterase 4 [1] = target: Phosphodiesterase 4 (Homo sapiens, UniProt P27815+Q08499+Q07343+Q08493); assay: Inhibition of Phosphodiesterase 4
[2] = target: Phosphodiesterase 3 (Homo sapiens) (UniProt Q14432+Q13370); assay: Inhibition of Phosphodiesterase 3 (PDE III) at 100 uM
Phosphodiesterase 4 [3] = target: Phosphodiesterase 4 (Mus musculus, UniProt Q8VBU5+Q3UEI1+O89084+Q01063); assay: Inhibition of [3H]rolipram binding to Phosphodiesterase 4 (PDE IV)

Structure (SMILES) | IC50 (Phosphodiesterase 4 [1]) [µM] | inhibition [2] [%] | IC50 (Phosphodiesterase 4 [3]) [µM]
COc1ccc(/C=C2\C(=O)N(C)c3ccc(Cl)cc32)cc1OC1CC2CCC1C2 (stereo unspecified) | 3.4 | -9 | 58
COc1ccc(/C=C2\C(=O)Nc3ccc(Br)cc32)cc1OC1CC2CCC1C2 (stereo unspecified) | 1.7 | 17 | 50
COc1ccc(/C=C2\C(=O)Nc3ccccc32)cc1OC1CC2CCC1C2 (stereo unspecified) | 3.7 | – | 3.2
COc1ccc(/C=C2\C(=O)Nc3ccc([N+](=O)[O-])cc32)cc1OC1CC2CCC1C2 (stereo unspecified) | 1.2 | 18 | 62
COc1ccc(C2CNC(=O)C2)cc1OC1CCCC1 (stereo unspecified) | – | 23 | –
COc1ccc(/C=C2/C(=O)Nc3ccccc32)cc1OC1CC2CCC1C2 (stereo unspecified) | 0.48 | 42 | 4.6
COc1ccc(/C=C2/C(=O)N(C)c3ccc([N+](=O)[O-])cc32)cc1OC1CC2CCC1C2 (stereo unspecified) | 7.1 | 25 | 66
COc1ccc(/C=C2\C(=O)N(C)c3ccc(Br)cc32)cc1OC1CC2CCC1C2 (stereo unspecified) | 3.6 | -7 | 57
